Consider 1 molecule from paper PMC3792137, “NMK-TD-100, a Novel Microtubule Modulating Agent, Blocks Mitosis and Induces Apoptosis in HeLa Cells by Binding to Tubulin” (PLoS ONE, 2013).

This experiment deals with T1, tubulin (alpha/beta heterodimer).
T1 construct: tubulin purified from goat brain; with alpha-tubulin/beta-tubulin heterodimer
In words: Ligand fluorescence enhancement titration (Scatchard, Job plot […]); tryptophan quenching gave Kd […]; polymerization IC50 […]. The class given is binding, Capra hircus.

`COc1cc(-c2nnc(-c3c[nH]c4ccccc34)s2)cc(OC)c1OC` [NMK-TD-100]: the Kd – broadly, a measure of binding affinity in units of concentration – was 1260 ± 320 nM.
